Measured values: PubChem BioAssay (NCI)
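1) Cells in 96-well plates. 2) Compound, 48 h, 5 concentrations. 3) Linear interpolation between surrounding doses. 4) Unreached endpoint = highest concentration. GI50 marks 50% less growth. TGI marks complete inhibition of growth.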

Assays:
Assay in all cases: growth of human tumour cells (NCI), 48 h
NCI/ADR-RES ovarian = system: NCI/ADR-RES ovarian
MOLT-4 leukemia = system: MOLT-4 leukemia
M14 melanoma = system: M14 melanoma
RXF 393 renal = system: RXF 393 renal
HL-60(TB) leukemia = system: HL-60(TB) leukemia
CAKI-1 renal = system: CAKI-1 renal
OVCAR-5 ovarian = system: OVCAR-5 ovarian
HS 578T breast = system: HS 578T breast
SK-MEL-5 melanoma = system: SK-MEL-5 melanoma
SF-268 CNS = system: SF-268 CNS
SN12C renal = system: SN12C renal
BT-549 breast = system: BT-549 breast
TK-10 renal = system: TK-10 renal
IGROV1 ovarian = system: IGROV1 ovarian
UACC-257 melanoma = system: UACC-257 melanoma
SNB-19 CNS = system: SNB-19 CNS
SK-MEL-2 melanoma = system: SK-MEL-2 melanoma
OVCAR-8 ovarian = system: OVCAR-8 ovarian
MALME-3M melanoma = system: MALME-3M melanoma
HCT-116 colon = system: HCT-116 colon
MDA-N = system: MDA-N
SW-620 colon = system: SW-620 colon
NCI-H23 lung = system: NCI-H23 lung
UO-31 renal = system: UO-31 renal
HCT-15 colon = system: HCT-15 colon
786-0 renal = system: 786-0 renal
NCI-H522 lung = system: NCI-H522 lung
ACHN renal = system: ACHN renal
UACC-62 melanoma = system: UACC-62 melanoma
EKVX NSCLC = system: EKVX NSCLC
HOP-92 NSCLC = system: HOP-92 NSCLC
MCF7 breast = system: MCF7 breast
KM12 colon = system: KM12 colon
MDA-MB-231 breast = system: MDA-MB-231 breast
SK-OV-3 ovarian = system: SK-OV-3 ovarian
HCC-2998 colon = system: HCC-2998 colon
LOX IMVI melanoma = system: LOX IMVI melanoma
HOP-62 NSCLC = system: HOP-62 NSCLC
SR leukemia = system: SR leukemia
MDA-MB-435 = system: MDA-MB-435
A549 NSCLC = system: A549 NSCLC
U251 CNS = system: U251 CNS
PC-3 prostate = system: PC-3 prostate
NCI-H226 lung = system: NCI-H226 lung
HT29 colon = system: HT29 colon
SF-295 CNS = system: SF-295 CNS
K-562 leukemia = system: K-562 leukemia
OVCAR-4 ovarian = system: OVCAR-4 ovarian
NCI-H460 lung = system: NCI-H460 lung
SF-539 CNS = system: SF-539 CNS
SK-MEL-28 melanoma = system: SK-MEL-28 melanoma
COLO 205 colon = system: COLO 205 colon
RPMI-8226 leukemia = system: RPMI-8226 leukemia
OVCAR-3 ovarian = system: OVCAR-3 ovarian
SNB-75 CNS = system: SNB-75 CNS
T-47D breast = system: T-47D breast
A498 renal = system: A498 renal
CCRF-CEM leukemia = system: CCRF-CEM leukemia
DU-145 prostate = system: DU-145 prostate

O=C1O[C@H](c2ccc3c(c2)OCO3)[C@H]2CO[C@@H](c3ccc4c(c3)OCO4)[C@@H]12
TGI (NCI/ADR-RES ovarian): > 100 µM | TGI (MOLT-4 leukemia): > 100 µM | TGI (M14 melanoma): > 100 µM | TGI (RXF 393 renal): > 100 µM | TGI (HL-60(TB) leukemia): > 100 µM | TGI (CAKI-1 renal): > 100 µM | TGI (OVCAR-5 ovarian): > 100 µM | TGI (HS 578T breast): > 100 µM | TGI (SK-MEL-5 melanoma): > 100 µM | TGI (SF-268 CNS): > 100 µM | TGI (SN12C renal): > 100 µM | TGI (BT-549 breast): > 100 µM | TGI (TK-10 renal): > 100 µM | TGI (IGROV1 ovarian): > 100 µM | TGI (UACC-257 melanoma): > 100 µM | TGI (SNB-19 CNS): > 100 µM | TGI (SK-MEL-2 melanoma): > 100 µM | TGI (OVCAR-8 ovarian): > 100 µM | TGI (MALME-3M melanoma): > 100 µM | TGI (HCT-116 colon): > 100 µM | TGI (MDA-N): > 100 µM | TGI (SW-620 colon): > 100 µM | TGI (NCI-H23 lung): > 100 µM | TGI (UO-31 renal): > 100 µM | TGI (HCT-15 colon): > 100 µM | TGI (786-0 renal): > 100 µM | TGI (NCI-H522 lung): > 100 µM | TGI (ACHN renal): > 100 µM | TGI (UACC-62 melanoma): > 100 µM | TGI (EKVX NSCLC): > 100 µM | TGI (HOP-92 NSCLC): > 100 µM | TGI (MCF7 breast): > 100 µM | TGI (KM12 colon): > 100 µM | TGI (MDA-MB-231 breast): > 100 µM | TGI (SK-OV-3 ovarian): > 100 µM | TGI (HCC-2998 colon): > 100 µM | TGI (LOX IMVI melanoma): > 100 µM | TGI (HOP-62 NSCLC): > 100 µM | TGI (SR leukemia): > 100 µM | TGI (MDA-MB-435): > 100 µM | TGI (A549 NSCLC): > 100 µM | TGI (U251 CNS): > 100 µM | TGI (PC-3 prostate): > 100 µM | TGI (NCI-H226 lung): > 100 µM | TGI (HT29 colon): > 100 µM | TGI (SF-295 CNS): > 100 µM | TGI (K-562 leukemia): > 100 µM | TGI (OVCAR-4 ovarian): > 100 µM | TGI (NCI-H460 lung): > 100 µM | TGI (SF-539 CNS): > 100 µM | TGI (SK-MEL-28 melanoma): > 100 µM | TGI (COLO 205 colon): > 100 µM | TGI (RPMI-8226 leukemia): > 100 µM

CCCCON(OC(=O)c1ccc2ccc3cccc4ccc1c2c34)C(C)=O
GI50 (NCI/ADR-RES ovarian): 21.9 µM | TGI (NCI/ADR-RES ovarian): 60.7 µM | GI50 (MOLT-4 leukemia): 17.4 µM | TGI (MOLT-4 leukemia): 37.2 µM | GI50 (M14 melanoma): 22.7 µM | TGI (M14 melanoma): 55.3 µM | GI50 (RXF 393 renal): 19.7 µM | TGI (RXF 393 renal): 50.2 µM | GI50 (HL-60(TB) leukemia): 19.2 µM | TGI (HL-60(TB) leukemia): 44.2 µM | GI50 (OVCAR-3 ovarian): 31.8 µM | TGI (OVCAR-3 ovarian): 82.7 µM | GI50 (CAKI-1 renal): 14.4 µM | TGI (CAKI-1 renal): 32.6 µM | GI50 (OVCAR-5 ovarian): 23.2 µM | TGI (OVCAR-5 ovarian): 92 µM | GI50 (HS 578T breast): 18.8 µM | TGI (HS 578T breast): 66.6 µM | GI50 (SK-MEL-5 melanoma): 16.9 µM | TGI (SK-MEL-5 melanoma): 32.5 µM | GI50 (SNB-75 CNS): 19.9 µM | TGI (SNB-75 CNS): 41.7 µM | GI50 (T-47D breast): 29.7 µM | TGI (T-47D breast): > 100 µM | GI50 (SF-268 CNS): 19.5 µM | TGI (SF-268 CNS): 40.5 µM | GI50 (SN12C renal): 19.6 µM | TGI (SN12C renal): 39.2 µM | GI50 (BT-549 breast): 19.2 µM | TGI (BT-549 breast): 42.7 µM | GI50 (TK-10 renal): 30.5 µM | TGI (TK-10 renal): 87.9 µM | GI50 (IGROV1 ovarian): 16.5 µM | TGI (IGROV1 ovarian): 55.2 µM | GI50 (UACC-257 melanoma): 60.3 µM | TGI (UACC-257 melanoma): > 100 µM | GI50 (SNB-19 CNS): 34.3 µM | TGI (SNB-19 CNS): > 100 µM | GI50 (SK-MEL-2 melanoma): 23.9 µM | TGI (SK-MEL-2 melanoma): 68.9 µM | GI50 (OVCAR-8 ovarian): 28.9 µM | TGI (OVCAR-8 ovarian): > 100 µM | GI50 (MALME-3M melanoma): 18.3 µM | TGI (MALME-3M melanoma): 37.5 µM | GI50 (HCT-116 colon): 22.4 µM | TGI (HCT-116 colon): 52.3 µM | GI50 (SW-620 colon): 18.5 µM | TGI (SW-620 colon): 39.1 µM | GI50 (NCI-H23 lung): 17 µM | TGI (NCI-H23 lung): 35.5 µM | GI50 (UO-31 renal): 19.5 µM | TGI (UO-31 renal): 42.4 µM | GI50 (HCT-15 colon): 30.9 µM | TGI (HCT-15 colon): > 100 µM | GI50 (786-0 renal): 19.6 µM | TGI (786-0 renal): 38.2 µM | GI50 (NCI-H522 lung): 19.4 µM | TGI (NCI-H522 lung): 45.7 µM | GI50 (ACHN renal): 21.7 µM | TGI (ACHN renal): 51.6 µM | GI50 (A498 renal): 27.7 µM | TGI (A498 renal): 85.8 µM | GI50 (UACC-62 melanoma): 21.5 µM | TGI (UACC-62 melanoma): 47.2 µM | GI50 (EKVX NSCLC): 27.3 µM | TGI (EKVX NSCLC): > 100 µM | GI50 (CCRF-CEM leukemia): 16.3 µM | TGI (CCRF-CEM leukemia): 41.4 µM | GI50 (HOP-92 NSCLC): 16.3 µM | TGI (HOP-92 NSCLC): 44.3 µM | GI50 (MCF7 breast): 26.3 µM | TGI (MCF7 breast): 68.9 µM | GI50 (KM12 colon): 28.8 µM | TGI (KM12 colon): > 100 µM | GI50 (MDA-MB-231 breast): 18.9 µM | TGI (MDA-MB-231 breast): 40.2 µM | GI50 (SK-OV-3 ovarian): 40.1 µM | TGI (SK-OV-3 ovarian): > 100 µM | GI50 (HCC-2998 colon): 38.5 µM | TGI (HCC-2998 colon): > 100 µM | GI50 (DU-145 prostate): 31.1 µM | TGI (DU-145 prostate): > 100 µM | GI50 (LOX IMVI melanoma): 16.9 µM | TGI (LOX IMVI melanoma): 33.1 µM | GI50 (HOP-62 NSCLC): 24 µM | TGI (HOP-62 NSCLC): 60.1 µM | GI50 (SR leukemia): 13.2 µM | TGI (SR leukemia): 35.1 µM | GI50 (MDA-MB-435): 22.3 µM | TGI (MDA-MB-435): 50.4 µM | GI50 (A549 NSCLC): 39.1 µM | TGI (A549 NSCLC): > 100 µM | GI50 (U251 CNS): 18.1 µM | TGI (U251 CNS): 36.5 µM | GI50 (PC-3 prostate): 22.2 µM | TGI (PC-3 prostate): 56.7 µM | GI50 (NCI-H226 lung): 21 µM | TGI (NCI-H226 lung): 53.3 µM | GI50 (HT29 colon): 25 µM | TGI (HT29 colon): 74.9 µM | GI50 (SF-295 CNS): 30.3 µM | TGI (SF-295 CNS): > 100 µM | GI50 (K-562 leukemia): 20.9 µM | TGI (K-562 leukemia): 50.2 µM | GI50 (OVCAR-4 ovarian): 23.5 µM | TGI (OVCAR-4 ovarian): 59.9 µM | GI50 (NCI-H460 lung): 32.1 µM | TGI (NCI-H460 lung): > 100 µM | GI50 (SF-539 CNS): 18.5 µM | TGI (SF-539 CNS): 35.6 µM | GI50 (SK-MEL-28 melanoma): 27.1 µM | TGI (SK-MEL-28 melanoma): 81.7 µM | GI50 (COLO 205 colon): 24.9 µM | TGI (COLO 205 colon): 98.9 µM | GI50 (RPMI-8226 leukemia): 25.5 µM | TGI (RPMI-8226 leukemia): 80.4 µM
